Test results as given in the supplement of paper PMC10307832.

Columns and labels:
Assay in all cases: relative viability (nuclei count vs DMSO), 5 days (fraction); higher = more cells survive
MLN4924 + OSI-027 = compound: NS(=O)(=O)OC[C@@H]1C[C@@H](n2ccc3c(N[C@H]4CCc5ccccc54)ncnc32)C[C@@H]1O [MLN4924] + COc1cccc2cc(-c3nc([C@H]4CC[C@H](C(=O)O)CC4)n4ncnc(N)c34)[nH]c12 [OSI-027] (partner 0.5 µM)
Method in brief: (§1)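 Nuclei were stained with Hoechst during a one-step fixation (final 0.05% Triton X-100, 1% formaldehyde, 1 ug/ml Hoechst) carried out 5 days after dosing, then counted on 4× images. The cells, lung cancer lines in 1536-well plates, had been dosed by pin tool the day after seeding with one drug alone or a fixed anchor-drug dose plus five library-drug doses (not always all listed) in √10 steps. Relative viability is the nuclei count in treated wells divided by that in vehicle wells, and each value is the median of duplicate plates.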

GSK126 + Foretinib = compound: CC[C@H](C)N1C=C(C2=C(C=C(C=C21)C3=CN=C(C=C3)N4CCNCC4)C(=O)NCC5=C(C=C(NC5=O)C)C)C [GSK126] + COc1cc2c(Oc3ccc(NC(=O)C4(C(=O)Nc5ccc(F)cc5)CC4)cc3F)ccnc2cc1OCCCN1CCOCC1 [Foretinib] (partner 0.25 µM)
Method in brief: as §1

Carboplatin + Luminespib = compound: C1CC(C1)(C(=O)O)C(=O)O.[NH2-].[NH2-].[Pt+2] [Carboplatin] + CCNC(=O)c1noc(-c2cc(C(C)C)c(O)cc2O)c1-c1ccc(CN2CCOCC2)cc1 [Luminespib] (partner 0.01 µM)
Method in brief: as §1

Carboplatin + Pemetrexed = compound: C1CC(C1)(C(=O)O)C(=O)O.[NH2-].[NH2-].[Pt+2] [Carboplatin] + Nc1nc2[nH]cc(CCc3ccc(C(=O)N[C@@H](CCC(=O)O)C(=O)O)cc3)c2c(=O)[nH]1 [Pemetrexed] (partner 0.2 µM)
Method in brief: as §1

Cell Line	relative viability (MLN4924 + OSI-027; first compound 0.04 µM)	relative viability (MLN4924 + OSI-027; first compound 0.1265 µM)	relative viability (MLN4924 + OSI-027; first compound 0.4 µM)	relative viability (MLN4924 + OSI-027; first compound 1.265 µM)	relative viability (MLN4924 + OSI-027; first compound 4 µM)	relative viability (GSK126 + Foretinib; first compound 0.08 µM)	relative viability (GSK126 + Foretinib; first compound 0.253 µM)	relative viability (GSK126 + Foretinib; first compound 0.8 µM)	relative viability (GSK126 + Foretinib; first compound 2.53 µM)	relative viability (GSK126 + Foretinib; first compound 8 µM)	relative viability (Carboplatin + Luminespib; first compound 0.08 µM)	relative viability (Carboplatin + Luminespib; first compound 0.253 µM)	relative viability (Carboplatin + Luminespib; first compound 0.8 µM)	relative viability (Carboplatin + Luminespib; first compound 2.53 µM)	relative viability (Carboplatin + Luminespib; first compound 8 µM)	relative viability (Carboplatin + Pemetrexed; first compound 0.08 µM)	relative viability (Carboplatin + Pemetrexed; first compound 0.253 µM)	relative viability (Carboplatin + Pemetrexed; first compound 0.8 µM)	relative viability (Carboplatin + Pemetrexed; first compound 2.53 µM)	relative viability (Carboplatin + Pemetrexed; first compound 8 µM)
RERF-LC-KJ	0.576	0.52	0.217	0.175	0.224	0.955	0.893	0.852	0.897	0.825	1.24	1.18	1.13	0.918	0.5	0.492	0.475	0.479	0.458	0.438
NCI-H2126	0.665	0.75	0.59	0.407	0.346	1.19	0.847	1.21	1.28	1.25	0.862	1.07	0.992	0.931	0.695	0.759	0.64	0.724	0.698	0.647
SW 900	0.266	0.412	0.217	0.0913	0.152	0.753	0.817	0.922	0.848	0.909	0.16	0.168	0.162	0.161	0.15	0.495	0.468	0.488	0.525	0.496
LXF-289	0.833	0.713	0.569	0.165	0.13	0.962	1.01	0.952	0.973	1.02	0.79	0.787	0.601	0.677	0.568	0.981	0.998	0.902	0.895	0.744
BEN	0.318	0.308	0.228	0.218	0.195	0.712	0.767	0.575	0.683	0.607	0.462	0.3	0.257	0.311	0.266	1.02	0.931	0.772	0.759	0.738
